Patent publication US20140135281A1, “METHODS FOR C[…] MITES” (SYNGENTA PARTICIPATIONS AG, priority 2011, published 2014)

Test system: Varroa destructor
Assay: Contact test of Varroa mite adults on Potter-tower-treated Petri dishes, mortality
Assay type: in vivo
Settings: concentration of formulation (WP75) 67 microgramme; in 2 days; adult mites, 4 dishes of 5, spray deposit contact
From the text: Varroa mites came from bee colonies provided by a beekeeper. The mite population is kept in a dedicated apiary. For screening needs adults are collected on the same day as the beginning of experiment, either in beehive cells containing brood of worker bees or drones, or directly on bees emerging during collection.
Bee nymphs needed to feed adults of Varroa mites during experiments are choosen within the frames from which Varroa is also collected. They are collected at the stage of nymph with white or pink coloured eyes according methology described by Rembold et Kremer (Characterization of postembryonic developmental stages of the female castes of the honey bee, Apis mellifera L.. Apidologie 11: 29-38).
3 cm diameter Petri dishes were used as confinement material of Varroa mites during experiments. Covers with wire mesh were put on the top of each Petri dish in order to avoid the mites to run away but also to keep favorable humidity for the bee nymph.
Applications were done with a Potter tower (described in “An improved apparatus for applying direct sprays and surface films with data on the electrostatic charge on atomize spray fluids.” Annal of Applied Biology, 39 : 1-28.). The active substance was apllied to achieve uniform distribution on the Petri dish (1.5 mg±0.2 mg/cm^2). A check with distilled water was also tested. […]

Nc1nc(N)nc(NC2CC2)n1 [cyromazine]
% mortality of Varroa: 80% in 2 days
